Experimental findings from ChEMBL document CHEMBL3227918, “Synthesis and pharmacological evaluation of cis-3,4,4a,9a-tetrahydro-1H-pyrano[3,4-b]benzofuran-1-ones. Tricyclic analogues related to the antilipidemic drug clofibrate” (J Med Chem, 1979) are described below.

Data set [1] concerns Rattus norvegicus. In words: Antilipidemic activity against Sprague-Dawley rat assessed as liver triglyceride level per gram of tissue at 0.4 mmol/kg, po twice daily for 7 days (reference value: 3.87 +/- 0.59 mg). Format: functional.
Data set [2] relates to Rattus norvegicus. In words: Antilipidemic activity against Sprague-Dawley rat assessed as increase in liver cyt P-450 activity measured per mg of protein at 0.4 mmol/kg, po twice daily for 7 days (reference value: 0.833 +/- 0.0644 nmol). Format: functional.
Data set [3] has as its system Rattus norvegicus. In words: Antilipidemic activity against Sprague-Dawley rat assessed as increase in liver to body weight at 0.4 mmol/kg, po twice daily for 7 days (reference value: 3.96 +/- 0.20 mg/g). Format: functional.
Data set [4] deals with Rattus norvegicus. In words: Effect on liver weight in Sprague-Dawley rat at 0.4 mmol/kg, po twice daily for 7 days (reference value: 11.8 +/- 0.93 g). The data set is classed as ADME, organism-based. The settings on record: in vivo, 168 h.
For data set [5], the system named is Rattus norvegicus. In words: Antilipidemic activity against Sprague-Dawley rat assessed as increase in liver cyt b activity measured per mg of protein at 0.4 mmol/kg, po twice daily for 7 days (reference value: 0.310 +/- 0.052 nmol). Format: functional.
Data set [6] addresses T1, 3-hydroxy-3-methylglutaryl-coenzyme A reductase (Rattus norvegicus) (UniProt P51639).
T1 sequence (whole entry): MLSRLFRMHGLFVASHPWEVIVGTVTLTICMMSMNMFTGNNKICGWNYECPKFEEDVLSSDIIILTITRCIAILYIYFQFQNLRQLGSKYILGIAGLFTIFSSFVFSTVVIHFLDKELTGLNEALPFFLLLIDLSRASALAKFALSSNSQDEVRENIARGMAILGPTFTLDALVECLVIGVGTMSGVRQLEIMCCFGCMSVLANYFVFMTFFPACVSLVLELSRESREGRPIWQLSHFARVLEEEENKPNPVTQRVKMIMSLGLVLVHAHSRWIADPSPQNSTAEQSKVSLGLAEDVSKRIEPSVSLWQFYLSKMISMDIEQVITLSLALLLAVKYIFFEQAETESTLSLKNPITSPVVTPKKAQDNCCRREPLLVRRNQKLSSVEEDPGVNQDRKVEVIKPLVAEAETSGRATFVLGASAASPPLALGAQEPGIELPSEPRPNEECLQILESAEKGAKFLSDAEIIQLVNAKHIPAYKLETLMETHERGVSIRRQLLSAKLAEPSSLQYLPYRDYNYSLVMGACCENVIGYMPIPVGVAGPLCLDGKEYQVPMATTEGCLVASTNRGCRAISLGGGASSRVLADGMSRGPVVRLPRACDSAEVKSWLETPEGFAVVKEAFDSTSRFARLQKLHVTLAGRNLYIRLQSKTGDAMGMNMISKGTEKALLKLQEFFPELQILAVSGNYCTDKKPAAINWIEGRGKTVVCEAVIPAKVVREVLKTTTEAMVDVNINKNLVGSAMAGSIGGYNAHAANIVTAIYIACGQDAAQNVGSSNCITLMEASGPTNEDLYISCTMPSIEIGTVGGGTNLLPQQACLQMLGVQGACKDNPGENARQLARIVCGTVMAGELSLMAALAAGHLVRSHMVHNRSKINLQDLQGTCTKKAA
Nature of the data set: Inhibition of Sprague-Dawley rat liver microsome HMG-CoA reductase activity assessed as mevalonic acid formation form DL-3-hydroxy-3-methylglutaryl[3-14C]coenzyme by scintillation counting (reference value: 13.2 +/- 3.30 nmol/mg/h).

Data set [7] has as its system Rattus norvegicus. In words: Antilipidemic activity against Sprague-Dawley rat assessed as increase in liver ethylmorphine N-demethylase activity measured as HCHO formation per mg/min at 0.4 mmol/kg, po twice daily for 7 days (reference value: 6.48 +/- 0.70 nmol). The data set is classed as functional.
Data set [8] concerns Rattus norvegicus. Nature of the data set: Effect on microsomal protein content in Sprague-Dawley rat at 0.4 mmol/kg, po twice daily for 7 days (reference value: 25.8 +/- 1.17 mg/g). Format: functional.
The test system of data set [9] is Rattus norvegicus. In words: Antilipidemic activity against Sprague-Dawley rat assessed as liver cholesterol level per gram of tissue at 0.4 mmol/kg, po twice daily for 7 days (reference value: 2.96 +/- 0.42 mg). Format: functional.
Data set [10] relates to Rattus norvegicus. Nature of the data set: Antilipidemic activity against Sprague-Dawley rat assessed as increase in liver NADPH:cyt c reductase activity at 0.4 mmol/kg, po twice daily for 7 days (reference value: 164 +/- 16.7 nmol/mg/min). Format: functional.

In the case of `C[C@@]12Oc3ccc(Cl)cc3[C@@H]1CCOC2=O` (relative stereo), the Activity in the data set with Rattus norvegicus [1] is 7.75 mg; with Rattus norvegicus [2], 1.62 nmol; in the data set on Rattus norvegicus [3], 4.56%; in the data set on Rattus norvegicus [4] it was 14.1 g; in the data set with Rattus norvegicus [5], 0.421 nmol; in data set [6] it was 8.2 nmol/mg/h. In addition, the Activity in the data set with Rattus norvegicus [7] is recorded as 11.1 nmol; with Rattus norvegicus [8] it was 31.9 mg/g; in the data set on Rattus norvegicus [9] it was 3.19 mg; with Rattus norvegicus [10] it was 315 nmol/mg/min.
In the case of `O=C1OCC[C@H]2c3cc(Cl)ccc3O[C@@H]12` (relative stereo), the Activity in the data set with Rattus norvegicus [1] was 5.66 mg; with Rattus norvegicus [2] it was 0.962 nmol; in the data set with Rattus norvegicus [3], 4.03%; with Rattus norvegicus [4], 12.1 g; in the data set with Rattus norvegicus [5], 0.292 nmol; in data set [6] it was 11 nmol/mg/h. The Activity in the data set with Rattus norvegicus [7] was 7.96 nmol; in the data set on Rattus norvegicus [8] it was 25.2 mg/g; with Rattus norvegicus [9], 2.93 mg; in the data set on Rattus norvegicus [10] it was 210 nmol/mg/min.
For the molecule `CCOC(=O)C(C)(C)Oc1ccc(Cl)cc1` [CLOFIBRATE], the Activity in the data set with Rattus norvegicus [1] turned out to be 4.65 mg; in the data set with Rattus norvegicus [2], 1.06 nmol; in the data set on Rattus norvegicus [3] it was 4.84%; with Rattus norvegicus [4], 15.1 g; in the data set with Rattus norvegicus [5] it was 0.293 nmol; in data set [6], 11.3 nmol/mg/h. Further, the Activity with Rattus norvegicus [7] is 7.82 nmol; in the data set on Rattus norvegicus [8], 29 mg/g; with Rattus norvegicus [9], 2.59 mg; in the data set on Rattus norvegicus [10] it was 246 nmol/mg/min.
